We go through 24 compounds from ChEMBL document CHEMBL1201862, “PubChem BioAssay data set” (2004).

SMILES strings stand for the structures.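 1) Cells in 96-well plates. 2) Compound, 48 h, 5 concentrations. 3) Linear interpolation between surrounding doses. 4) Unreached endpoint = highest concentration. Abbreviation: GI50, concentration required for 50% inhibition of growth.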 Active and inactive are the calls of the source. Rule as the data show it: active = GI50 up to about 1.1 µM and inactive = higher. Bounds are passed on as bounds.

Among the test systems are DMS-273; LXFL 529; DMS-114; RXF 631; KM-20L2; DLD-1; SNB-78; XF498; HOP-18.
Common to all, as to experiment: NCI tumour cell line growth inhibition, 48 h

For the compound `CN(C)C(=O)CC(C(=O)O)c1c[nH]c2ccccc12` (stereo unspecified), the GI50 with DMS-273, in the assay with LXFL 529, with DMS-114, with RXF 631, in the assay with KM-20L2 and with DLD-1 was > 100 µM (inactive) throughout.
With `Cc1ccc(C)c(NC(=O)CCc2n[nH]c(=S)o2)c1`, the GI50 in the assay with DMS-273, in the assay on LXFL 529, in the assay on DMS-114, with SNB-78, in the assay with RXF 631 and in the assay with XF498 was > 100 µM (inactive) in each case. The GI50 in the assay on KM-20L2, with HOP-18 and in the assay with DLD-1 was > 100 µM (inactive) each time.
On to `CC[N+](C)(CC)CC(C)(C)C(=O)/C=C/c1ccc(/C=C/C(=O)C(C)(C)C[N+](C)(CC)CC)cc1`, for which the GI50 in the assay with DMS-273, in the assay with LXFL 529, with DMS-114, in the assay with SNB-78, in the assay on RXF 631 and with KM-20L2 was > 100 µM (inactive) throughout. Moreover, in the assay with DLD-1, the GI50 was > 100 µM (inactive).
`O=C(O)C1=NN=C(C(=O)O)NN1`: the GI50 in the assay on DMS-273, in the assay with LXFL 529, in the assay with SNB-78, with KM-20L2, with HOP-18 and in the assay on DLD-1 was > 100 µM (inactive) throughout.
For `COc1cccc(NC(=O)CC(=O)N2N=C(n3ccc4ccccc43)CC2c2ccccc2)c1` (stereo unspecified), the GI50 in the assay on DMS-273, with LXFL 529, with DMS-114, in the assay on SNB-78, in the assay on KM-20L2 and in the assay on HOP-18 was > 100 µM (inactive) each time. Also, the GI50 with DLD-1 was > 100 µM (inactive).
For the compound `CC(=O)N1CC(=O)NC1=S`, the GI50 in the assay on DMS-273, in the assay on LXFL 529, with DMS-114, in the assay with SNB-78, with XF498 and in the assay on KM-20L2 was > 100 µM (inactive) in each case. Moreover, the GI50 in the assay with DLD-1 was > 100 µM (inactive).
Consider `COc1ccc2occ(CCC(=O)O)c2c1`, for which the GI50 with DMS-273, with LXFL 529, with DMS-114, in the assay on SNB-78, with XF498 and with KM-20L2 was > 100 µM (inactive) each time. In addition, the GI50 in the assay with HOP-18 and in the assay with DLD-1 was > 100 µM (inactive) throughout.
Turning to `Cn1cnc([N+](=O)[O-])c1Sc1nccn1-c1cccc2ccccc12`, the GI50 in the assay on DMS-273 is 25.2 µM (inactive); with LXFL 529 it was 18.5 µM (inactive); in the assay on DMS-114, 22 µM (inactive); in the assay with SNB-78, 24.7 µM (inactive); in the assay with RXF 631, 22.3 µM (inactive); in the assay with XF498 it was 16.6 µM (inactive). Besides, the GI50 is 64.1 µM (inactive) with KM-20L2, 2.52 µM (inactive) with HOP-18 and 24.2 µM (inactive) in the assay with DLD-1.
On to `O=C1CC[C@@H](S(=O)(=O)c2ccccc2)[C@H](/C=C/c2ccccc2)O1`, for which the GI50 in the assay on LXFL 529 is > 100 µM (inactive); in the assay on DMS-114, > 100 µM (inactive); in the assay with XF498, < 0.01 µM (active); in the assay with KM-20L2, > 10 µM (inactive); with HOP-18, > 100 µM (inactive).
As to `COC(=O)c1c2cccccc-2c(Cc2c3cccccc-3c(C(=O)OC)c2O)c1O`, the GI50 in the assay with DMS-273, in the assay on DMS-114, in the assay on SNB-78, with XF498, in the assay on KM-20L2 and in the assay on HOP-18 was > 100 µM (inactive) in each case. In the assay on DLD-1, the GI50 is > 100 µM (inactive).
Consider `CCOC(OCC)c1ccc(/C=C/c2cc(OC)c(OC)c(OC)c2)cc1`, for which the GI50 in the assay with DMS-273 is 17.6 µM (inactive); in the assay on LXFL 529, 16.1 µM (inactive); with DMS-114, 20.7 µM (inactive); in the assay on SNB-78 it was 27 µM (inactive); with RXF 631, 20 µM (inactive); in the assay with KM-20L2, 18.7 µM (inactive). Besides, the figures for the GI50 in the assay on HOP-18 and in the assay with DLD-1 were 61.4 µM (inactive) and 16.1 µM (inactive), respectively.
`CCOc1cc2c(cc1OC)c[n+](C)c1c3cc(OC)c(OC)cc3ccc21`: the GI50 is 27.8 µM (inactive) with DMS-273; 27 µM (inactive) in the assay with LXFL 529; 18.2 µM (inactive) with DMS-114; > 57 µM (inactive) with SNB-78; 22.6 µM (inactive) in the assay on RXF 631; > 100 µM (inactive) in the assay with KM-20L2. In addition, the GI50 was > 48.6 µM (inactive) in the assay on HOP-18 and > 78.2 µM (inactive) with DLD-1.
For the compound `CCN(CC)C(=S)SCC(=O)Nc1nc2c(s1)CCCC2`, the GI50 with DMS-273 is 88.5 µM (inactive); in the assay on LXFL 529, 47.2 µM (inactive); with DMS-114 it was 67.8 µM (inactive); with SNB-78 it was > 100 µM (inactive); with XF498, 18.7 µM (inactive); in the assay on KM-20L2 it was > 100 µM (inactive). Further, the GI50 in the assay on DLD-1 was 94 µM (inactive).
Regarding `CC(=O)c1cccc(NC2C(N)C(NC(=O)N(C)C)(C(C)O)C(C)(O)C2(O)COC(=O)c2c(C)cccc2O)c1` (stereo unspecified), the GI50 with LXFL 529, with DMS-114, with SNB-78 and in the assay with KM-20L2 was 0.01 µM (active) each time.
Consider `Cc1cccc(C)c1NC(=O)CCC/C(CC(=O)c1ccc(F)cc1)=N\NC(=O)C(=O)NN`, for which the GI50 in the assay with DMS-273, in the assay with LXFL 529, with DMS-114, in the assay with SNB-78, in the assay with RXF 631 and in the assay with XF498 was > 100 µM (inactive) each time. In addition, the GI50 in the assay on KM-20L2, in the assay with HOP-18 and with DLD-1 was > 100 µM (inactive) in each case.
Turning to `O=C(/C=C/c1ccc([N+](=O)[O-])o1)N1CCN(Cc2ccccc2)CC1`, the GI50 in the assay with DMS-273 is 9.82 µM (inactive); with LXFL 529, 6.56 µM (inactive); in the assay on DMS-114, 12.2 µM (inactive); in the assay with SNB-78, 17.1 µM (inactive); in the assay with XF498, 16.7 µM (inactive); with KM-20L2, 10.9 µM (inactive). The values for the GI50 in the assay on HOP-18 and in the assay on DLD-1 were 22.6 µM (inactive) and 5.96 µM (inactive), respectively.
As to `CN(C)CCS/C(=N\c1ccccc1)N1C=COC=C1`, the GI50 was 18.4 µM (inactive) in the assay with DMS-273; 16.4 µM (inactive) with LXFL 529; 14.6 µM (inactive) in the assay with DMS-114; 26.9 µM (inactive) with SNB-78; 31.2 µM (inactive) in the assay on XF498; 47.1 µM (inactive) in the assay with KM-20L2. The GI50 in the assay with HOP-18 was 59.8 µM (inactive); in the assay on DLD-1, 17.4 µM (inactive).
As to `C=C(COC(C)=O)CC(/C=C(\C)CC/C=C(\C)CO)OC(C)=O` (stereo unspecified), the GI50 in the assay on DMS-273, in the assay with LXFL 529, in the assay with SNB-78, in the assay on RXF 631, in the assay with XF498 and with KM-20L2 was > 100 µM (inactive) in each case. Moreover, the GI50 in the assay on DLD-1 was > 100 µM (inactive).
Take `Nc1nc(Cl)cc(NCCCCCNc2cc(Cl)nc(N)n2)n1`: the GI50 was > 100 µM (inactive) in the assay on DMS-273; 26.9 µM (inactive) in the assay on LXFL 529; 31.3 µM (inactive) with SNB-78; > 100 µM (inactive) in the assay on RXF 631; > 100 µM (inactive) with KM-20L2; > 100 µM (inactive) with HOP-18. In addition, the GI50 in the assay with DLD-1 was > 100 µM (inactive).
For the compound `O=C(Cn1ccnc1[N+](=O)[O-])c1ccccc1`, the GI50 in the assay on DMS-273, in the assay with LXFL 529, in the assay with XF498, in the assay on KM-20L2 and in the assay with DLD-1 was > 100 µM (inactive) throughout.
On to `Nc1nc2c(c(=O)[nH]1)NC(CO)CN2` (stereo unspecified), for which the GI50 was > 100 µM (inactive) with DMS-273; 66.8 µM (inactive) in the assay with DMS-114; 84.9 µM (inactive) with XF498; > 100 µM (inactive) with HOP-18; > 100 µM (inactive) in the assay with DLD-1.
With `COc1cc2c(c(OC)c1)C(=O)C(=O)C(CC1(C)OCCCO1)=C2`, the GI50 in the assay with DMS-273 is 13.6 µM (inactive); in the assay with LXFL 529, 4.51 µM (inactive); with DMS-114, 3.59 µM (inactive); with SNB-78, 9.95 µM (inactive); in the assay on RXF 631 it was 17.4 µM (inactive); in the assay on XF498 it was 12.8 µM (inactive). For the same compound, the GI50 is 17.9 µM (inactive) with KM-20L2, 10.4 µM (inactive) with HOP-18 and 2.93 µM (inactive) with DLD-1.
Take `CC1Cc2c(N)nc(NN)nc2NC1=O` (stereo unspecified): the GI50 in the assay on DMS-273 is > 100 µM (inactive); with DMS-114, > 100 µM (inactive); in the assay on XF498 it was 3.94 µM (inactive); in the assay with KM-20L2 it was > 100 µM (inactive); in the assay on HOP-18, > 100 µM (inactive); in the assay on DLD-1, > 100 µM (inactive).
For `Cn1cc2ccccc2c1-c1nc(F)nc(OCC(=O)[C@H]2CCC3[C@@H]4CCC5=CC(=O)CC[C@]5(C)C4[C@@H](O)C[C@@]32C)n1` (stereo partly specified), the GI50 was 15.6 µM (inactive) with DMS-273; 3.72 µM (inactive) in the assay with LXFL 529; 7.52 µM (inactive) in the assay with DMS-114; 13.2 µM (inactive) with SNB-78; 2.33 µM (inactive) in the assay on RXF 631; 8.65 µM (inactive) with XF498. Also, the GI50 is 26.1 µM (inactive) in the assay on KM-20L2, 15.5 µM (inactive) in the assay with HOP-18 and 8.89 µM (inactive) in the assay with DLD-1.
